Where a SMILES comes first, the peptide text is derived from it. Bridges are numbered along the chain shown (N, C = ends). [ ]: non-standard residue; d: D form. Pro(4R-NH2) = N[C@H]1CN[C@H](C(=O)O)C1; Dab = NCC[C@H](N)C(=O)O

In this test the target is T1, FPR1 (Homo sapiens, UniProt P21462).
T1 construct: host or cells: CHO (PathHunter CHO-FPR1 β-arrestin cells)
T1 sequence (P21462 1-350): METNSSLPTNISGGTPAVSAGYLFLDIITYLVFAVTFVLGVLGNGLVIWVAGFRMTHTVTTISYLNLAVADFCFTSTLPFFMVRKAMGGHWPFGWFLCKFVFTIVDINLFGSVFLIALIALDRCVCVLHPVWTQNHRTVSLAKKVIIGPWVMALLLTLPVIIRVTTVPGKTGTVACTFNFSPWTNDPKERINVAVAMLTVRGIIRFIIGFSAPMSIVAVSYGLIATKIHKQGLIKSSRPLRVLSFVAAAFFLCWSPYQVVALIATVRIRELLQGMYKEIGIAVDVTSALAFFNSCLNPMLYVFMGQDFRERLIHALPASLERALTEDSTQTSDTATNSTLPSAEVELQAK
The test is described as follows: FPR1 β-arrestin recruitment assay (PathHunter CHO-FPR1, antagonistic mode). The test is classed as cell-based. To be noted: CHO FPR1 β-arrestin cells; antagonistic assay vs reference agonist fMLF at its EC80; 60 min preincubation. Here is the method:
2.2 FPR1 β-Arrestin Recruitment Assay
The PathHunter CHO—FPR1 (DiscoverX) assay was performed according to the manufacturer's protocol. In brief, CHO FPR1 β-arrestin cells were seeded at a density of 9000 cells per well in 20 μl of Ham's F12 medium (Invitrogen) in black 384-well culture plates and incubated overnight at 37° C. in a humidified atmosphere with 5% CO2. The next day, serial dilutions of the β-hairpin peptidomimetics of this invention have been prepared in DMSO and subsequently diluted in HBSS buffer supplemented with 20 mM Hepes and 0.1% BSA.
For antagonistic assay, 5 μl of compound solution or buffer was added to the cells with a final DMSO concentration of 0.5% (v/v). The plate was incubated for 60 min at 37° C. with 5% CO2 before addition of […] of the reference agonist fMLF peptide (Sigma-Aldrich) at its EC80 concentration. After 90 min of incubation at 37° C. with 5% CO2, 15 μl of beta-Glo detection reagent (Promega) were added. Reaction was developed for 20 min at room temperature and chemiluminescence was measured with a Victor2V (Perkin Elmer) luminescence reader.
For orientation: Activated receptors often draw arrestin, which recruitment assays turn into a signal.
`CC[C@H](C)[C@@H]1NC(=O)[C@H]([C@@H](C)O)NC(=O)[C@H](Cc2c[nH]c3ccccc23)NC(=O)[C@H]2CCCN2C(=O)CNC(=O)[C@H](Cc2c[nH]c3ccccc23)NC(=O)[C@@H]2CSSC[C@H](NC1=O)C(=O)N[C@@H](Cc1ccc(O)cc1)C(=O)N[C@@H](CCC(=O)O)C(=O)N[C@@H](CCCCN)C(=O)N[C@H](CCCCN)C(=O)N1CCC[C@H]1C(=O)N[C@@H](Cc1ccc(O)cc1)C(=O)N[C@@H](Cc1c[nH]cn1)C(=O)N[C@@H](CCCCN)C(=O)N2` [compound 43, cyclo(-Tyr-His-Lys-Cys-Trp-Gly-^DPro-Trp-Thr-Ile-Cys-Tyr-Glu-Lys-^DLys-Pro-)] (cyclo(YHKCWG[dP]WTICYEK[dK]P); disulfide 4-11) registered a half-maximal inhibitory concentration (IC50) of 126 ± 53 nM.
`CC[C@H](C)[C@@H]1NC(=O)[C@H]([C@@H](C)O)NC(=O)[C@H](Cc2c[nH]c3ccccc23)NC(=O)[C@H]2CCCN2C(=O)CNC(=O)[C@H](Cc2c[nH]c3ccccc23)NC(=O)[C@@H]2CSSC[C@H](NC1=O)C(=O)N[C@@H](Cc1ccc(O)cc1)C(=O)N[C@@H](CCC(=O)O)C(=O)N[C@@H](CCCCN)C(=O)N1CCC[C@@H]1C(=O)N1CCC[C@H]1C(=O)N[C@@H](Cc1ccc(O)cc1)C(=O)N[C@@H](Cc1c[nH]cn1)C(=O)N[C@@H](CCCCN)C(=O)N2` [compound 51, cyclo(-Tyr-His-Lys-Cys-Trp-Gly-^DPro-Trp-Thr-Ile-Cys-Tyr-Glu-Lys-^DPro-Pro-)] (cyclo(YHKCWG[dP]WTICYEK[dP]P); disulfide 4-11) showed a half-inhibitory concentration (IC50) of 54 ± 21 nM.
The result for `CC[C@H](C)[C@@H]1NC(=O)[C@H]([C@@H](C)O)NC(=O)[C@H](Cc2c[nH]c3ccccc23)NC(=O)[C@H]2CCCN2C(=O)CNC(=O)[C@H](Cc2c[nH]cn2)NC(=O)[C@@H]2CSSC[C@H](NC1=O)C(=O)N[C@@H](Cc1ccc(O)cc1)C(=O)N[C@@H](CCC(=O)O)C(=O)N[C@@H](CCN)C(=O)N1CCC[C@@H]1C(=O)N1CCC[C@H]1C(=O)N[C@@H](Cc1ccc(O)cc1)C(=O)N[C@@H](Cc1c[nH]cn1)C(=O)N[C@@H](CCCCN)C(=O)N2` [compound 56, cyclo(-Tyr-His-Lys-Cys-His-Gly-^DPro-Trp-Thr-Ile-Cys-Tyr-Glu-Dab-^DPro-Pro-)] (cyclo(YHKCHG[dP]WTICYE[Dab][dP]P); disulfide 4-11) reads 82 ± 29 nM; that for `CC[C@H](C)[C@@H]1NC(=O)[C@H]([C@@H](C)O)NC(=O)[C@H](Cc2c[nH]c3ccccc23)NC(=O)[C@H]2CCCN2C(=O)CNC(=O)[C@H](Cc2c[nH]cn2)NC(=O)[C@@H]2CSSC[C@H](NC1=O)C(=O)N[C@@H](Cc1ccc(O)cc1)C(=O)N[C@@H](CCC(=O)O)C(=O)N[C@@H](CCCCN)C(=O)N1CCC[C@@H]1C(=O)N1CCC[C@H]1C(=O)N[C@@H](CC(=O)O)C(=O)N[C@@H](Cc1c[nH]cn1)C(=O)N[C@@H](CCCCN)C(=O)N2` [compound 66, cyclo(-Asp-His-Lys-Cys-His-Gly-^DPro-Trp-Thr-Ile-Cys-Tyr-Glu-Lys-^DPro-Pro-)] (cyclo(DHKCHG[dP]WTICYEK[dP]P); disulfide 4-11), 177 ± 28 nM; that for `CC[C@H](C)[C@@H]1NC(=O)[C@H]([C@@H](C)O)NC(=O)[C@H](Cc2c[nH]c3ccccc23)NC(=O)[C@@H](C)NC(=O)CNC(=O)[C@H](Cc2c[nH]cn2)NC(=O)[C@@H]2CSSC[C@H](NC1=O)C(=O)N[C@@H](Cc1ccc(O)cc1)C(=O)N[C@@H](CCC(=O)O)C(=O)N[C@@H](CCCCN)C(=O)N1CCC[C@@H]1C(=O)N1CCC[C@H]1C(=O)N[C@@H](Cc1ccc(O)cc1)C(=O)N[C@@H](Cc1c[nH]cn1)C(=O)N[C@@H](CCCCN)C(=O)N2` [compound 71, cyclo(-Tyr-His-Lys-Cys-His-Gly-^DAla-Trp-Thr-Ile-Cys-Tyr-Glu-Lys-^DPro-Pro-)] (cyclo(YHKCHG[dA]WTICYEK[dP]P); disulfide 4-11), 77 ± 4 nM.
Consider `CC[C@H](C)[C@@H]1NC(=O)[C@H]([C@@H](C)O)NC(=O)[C@H](Cc2c[nH]c3ccccc23)NC(=O)[C@H]2CCCN2C(=O)CNC(=O)[C@H](Cc2c[nH]cn2)NC(=O)[C@@H]2CSSC[C@H](NC1=O)C(=O)N[C@@H](Cc1ccc(O)cc1)C(=O)N[C@@H](CCC(=O)O)C(=O)N[C@@H](CCCCN)C(=O)N1CCC[C@@H]1C(=O)N1C[C@H](N)C[C@H]1C(=O)N[C@@H](Cc1ccc(O)cc1)C(=O)N[C@@H](Cc1c[nH]cn1)C(=O)N[C@@H](CCCCN)C(=O)N2` [compound 83, cyclo(-Tyr-His-Lys-Cys-His-Gly-^DPro-Trp-Thr-IIe-Cys-Tyr-Glu-Lys-^DPro-Pro((4R)NH2)-)] (cyclo(YHKCHG[dP]WTICYEK[dP][Pro(4R-NH2)]); disulfide 4-11), for which the IC50 came to 82 ± 51 nM.
For the compound `CC[C@H](C)[C@@H]1NC(=O)[C@H]([C@@H](C)O)NC(=O)[C@H](Cc2c[nH]c3ccccc23)NC(=O)[C@H]2CCCN2C(=O)CNC(=O)[C@H](Cc2c[nH]c3ccccc23)NC(=O)[C@@H]2CSSC[C@H](NC1=O)C(=O)N[C@@H](Cc1ccc(O)cc1)C(=O)N[C@@H](CCC(=O)O)C(=O)N[C@@H](CCCCN)C(=O)N1CCC[C@@H]1C(=O)N[C@@H](CCCCN)C(=O)N[C@@H](Cc1ccc(O)cc1)C(=O)N[C@@H](Cc1c[nH]cn1)C(=O)N[C@@H](CCCCN)C(=O)N2` [compound 87, cyclo(-Tyr-His-Lys-Cys-Trp-Gly-^DPro-Trp-Thr-Ile-Cys-Tyr-Glu-Lys-^DPro-Lys-)] (cyclo(YHKCWG[dP]WTICYEK[dP]K); disulfide 4-11), the 50% inhibitory concentration (IC50) amounted to 54 ± 21 nM.

The IC50 is the concentration needed to halve the response being measured. Read a low IC50 as inhibition by little substance.

Source of the values: patent US9957297B2, “Template-fixed peptidomimetics as inhibitors of FPR1” (POLYPHOR AG, priority 2011, dated 2018).
